Reference: US9902696B2, “1,4-substituted piperidine derivatives” (Cephalon, Inc., priority 2015, dated 2018)

Target: T1, recombinant human baculovirus-expressed GST-tagged FASN (Homo sapiens, UniProt P49327)
T1 construct: GST
Test: FASN enzyme activity assay, fluorescence-based detection of CoA with CPM
Format: biochemical
Conditions: 5 nM FASN, 150 μM NADPH, 10 μM acetyl-CoA, 25 μM malonyl-CoA, 90 minutes incubation; read-out: IC50 data for Compounds of Formulae I-V/V(a): Activity
From the text: FASN Enzyme activity may be determined by detecting coenzyme A (CoA), a product of FASN-catalyzed synthesis of palmitate from acetyl-CoA and malonyl-CoA with NADPH as a cofactor. The assay is fluorescence-based and measures the interaction of free CoA with 7-diethylamino-3-(4′-malemimidylphenyl)-4-methylcoumarin (CPM; Life Technologies, CA) as described in Chung et al (2008). The coumarin derivative CPM contains a thiol-reactive maleimide that becomes fluorescent upon interaction with the sulfhydryl group of CoA.
For the example compounds described herein, the reaction was performed in 384-well low volume non-binding plates (Corning, N.Y.) using recombinant human baculovirus-expressed GST-tagged FASN. The 20-μL assay mixture contained 50 mM HEPES (pH 7.5), 5 nM FASN, 150 μM NADPH (Sigma, St. Louis, Mo.), 10 μM acetyl-CoA (Sigma), 25 μM malonyl-CoA (Sigma) and test compound [diluted in dimethyl sulfoxide (DMSO); 0.5% DMSO final in assay after 100 nL addition]. See, Chung et al.; “A fluorescence-based thiol quantification assay for ultra-high-throughput screening for inhibitors of coenzyme A production,” Assay Drug Dev Tech 2008; 6:361-374.
The reaction was initiated by adding malonyl-CoA, followed by incubation for 90 minutes at […]. A stock solution of the CPM reagent was prepared in DMSO at […] and stored at […]. To detect CoA produced in the FASN reaction, the CPM stock was diluted to […] in 70% ethanol and added at 4 μL/well to the assay plate. The reaction mixture was then incubated for 30 minutes. Fluorescence was measured using the EnVision™ 2102 multi-label plate reader (PerkinElmer, Waltham, Mass.) utilizing a general dual mirror, a 390 nm excitation filter and a 530 nm emission filter. Data analysis was performed using ActivityBase (IDBS, Guilford, UK). IC50 values were calculated by plotting the percent inhibition versus log 10 of the concentration of the compound, and fitting to the nonlinear regression sigmoidal dose-response (variable slope) equation in XLFit (IDBS).

T1 sequence (P49327 whole entry): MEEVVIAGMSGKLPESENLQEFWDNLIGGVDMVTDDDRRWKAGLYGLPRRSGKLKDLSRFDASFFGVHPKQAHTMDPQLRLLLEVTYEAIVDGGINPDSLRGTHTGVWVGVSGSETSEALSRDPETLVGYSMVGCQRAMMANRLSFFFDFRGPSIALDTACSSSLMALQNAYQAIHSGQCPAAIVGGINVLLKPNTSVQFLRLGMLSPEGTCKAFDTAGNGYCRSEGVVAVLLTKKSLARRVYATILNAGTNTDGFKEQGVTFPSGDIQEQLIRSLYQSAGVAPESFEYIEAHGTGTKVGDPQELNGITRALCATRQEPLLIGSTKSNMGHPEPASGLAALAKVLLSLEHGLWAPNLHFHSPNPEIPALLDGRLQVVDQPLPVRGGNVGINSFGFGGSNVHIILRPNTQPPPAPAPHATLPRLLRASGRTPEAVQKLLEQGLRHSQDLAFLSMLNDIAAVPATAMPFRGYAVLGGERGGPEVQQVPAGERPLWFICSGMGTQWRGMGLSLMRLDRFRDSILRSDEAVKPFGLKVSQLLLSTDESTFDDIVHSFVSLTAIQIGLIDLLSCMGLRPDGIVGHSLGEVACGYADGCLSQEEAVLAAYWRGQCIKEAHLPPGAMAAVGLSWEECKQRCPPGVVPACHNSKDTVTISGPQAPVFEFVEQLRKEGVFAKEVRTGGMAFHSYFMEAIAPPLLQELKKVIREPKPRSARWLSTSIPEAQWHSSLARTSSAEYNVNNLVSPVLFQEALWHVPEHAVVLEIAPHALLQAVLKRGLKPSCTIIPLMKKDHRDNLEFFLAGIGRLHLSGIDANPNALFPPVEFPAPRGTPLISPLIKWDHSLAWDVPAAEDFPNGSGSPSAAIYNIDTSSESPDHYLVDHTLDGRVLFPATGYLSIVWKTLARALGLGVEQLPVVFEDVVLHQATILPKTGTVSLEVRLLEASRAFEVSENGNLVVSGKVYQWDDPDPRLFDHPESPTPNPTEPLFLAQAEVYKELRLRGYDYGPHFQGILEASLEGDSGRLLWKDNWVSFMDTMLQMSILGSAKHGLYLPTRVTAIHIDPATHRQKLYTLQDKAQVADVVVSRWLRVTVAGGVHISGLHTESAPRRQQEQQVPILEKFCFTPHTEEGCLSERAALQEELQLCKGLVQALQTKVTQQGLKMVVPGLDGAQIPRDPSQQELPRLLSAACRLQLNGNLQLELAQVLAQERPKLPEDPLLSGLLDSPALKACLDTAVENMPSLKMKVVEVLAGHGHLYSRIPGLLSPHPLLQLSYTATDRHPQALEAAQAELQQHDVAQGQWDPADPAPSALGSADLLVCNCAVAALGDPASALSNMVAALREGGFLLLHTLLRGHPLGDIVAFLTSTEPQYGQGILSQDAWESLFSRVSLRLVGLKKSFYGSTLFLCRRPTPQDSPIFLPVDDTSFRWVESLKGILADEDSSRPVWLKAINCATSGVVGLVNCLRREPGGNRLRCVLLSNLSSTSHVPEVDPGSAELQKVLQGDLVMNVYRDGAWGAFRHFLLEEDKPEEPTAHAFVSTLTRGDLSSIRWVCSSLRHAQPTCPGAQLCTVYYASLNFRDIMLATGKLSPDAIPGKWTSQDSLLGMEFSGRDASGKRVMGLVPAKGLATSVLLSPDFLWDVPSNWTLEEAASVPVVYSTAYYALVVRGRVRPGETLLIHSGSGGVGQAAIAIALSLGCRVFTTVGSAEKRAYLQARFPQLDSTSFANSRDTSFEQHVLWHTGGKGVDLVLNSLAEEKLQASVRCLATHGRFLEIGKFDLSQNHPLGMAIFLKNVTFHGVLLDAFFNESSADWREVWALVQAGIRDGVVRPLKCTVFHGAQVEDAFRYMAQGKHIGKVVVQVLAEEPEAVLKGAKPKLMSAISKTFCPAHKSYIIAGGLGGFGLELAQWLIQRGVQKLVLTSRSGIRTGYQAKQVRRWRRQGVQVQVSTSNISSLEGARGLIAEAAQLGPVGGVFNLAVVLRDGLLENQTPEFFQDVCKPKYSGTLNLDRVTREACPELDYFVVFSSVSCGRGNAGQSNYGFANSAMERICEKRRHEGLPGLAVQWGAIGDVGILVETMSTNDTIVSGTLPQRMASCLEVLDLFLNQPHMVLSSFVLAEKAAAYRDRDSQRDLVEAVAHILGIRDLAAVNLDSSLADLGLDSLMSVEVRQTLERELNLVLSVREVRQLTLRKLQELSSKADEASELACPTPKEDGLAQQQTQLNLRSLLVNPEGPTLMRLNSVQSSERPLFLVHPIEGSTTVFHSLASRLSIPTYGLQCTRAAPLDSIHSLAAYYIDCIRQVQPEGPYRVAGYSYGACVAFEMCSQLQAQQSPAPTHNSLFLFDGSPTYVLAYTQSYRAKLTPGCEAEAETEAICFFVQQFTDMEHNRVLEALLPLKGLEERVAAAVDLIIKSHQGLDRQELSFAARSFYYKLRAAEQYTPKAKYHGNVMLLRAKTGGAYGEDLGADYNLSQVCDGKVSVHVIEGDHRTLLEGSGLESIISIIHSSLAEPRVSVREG

IC50 [nM]	SMILES
1000 to 10000	O=C(C1CC1)N1CCC(Oc2ccc(-c3cc4ccccc4nc3Cl)cc2)CC1 [Example 17, {4-[4-(2-Chloroquinolin-3-yl)-phenoxy]-piperidin-1-yl}-cyclopropyl-methanone]
100 to 999	CCC(=O)N1CCC(Oc2ccc(-c3cc4ccccc4nc3OC)cc2)CC1 [Example 18, 1-{4-[4-(2-Methoxyquinolin-3-yl)-phenoxy]-piperidin-1-yl}-propan-1-one]
1000 to 10000	O=C(C1CC1)N1CCC(Oc2ccc(-c3cnc4c(c3)CCCC4)cc2)CC1 [Example 19, Cyclopropyl-{4-[4-(5,6,7,8-tetrahydro-quinolin-3-yl)-phenoxy]-piperidin-1-yl}-methanone]
1000 to 10000	O=C(C1CCC1)N1CCC(Oc2ccc(-c3cnc4c(c3)CCCC4)cc2)CC1 [Example 20, Cyclobutyl-{4-[4-(5,6,7,8-tetrahydroquinolin-3-yl)-phenoxy]-piperidin-1-yl}-methanone]
1000 to 10000	CCC(=O)N1CCC(Oc2ccc(-c3cnc4c(c3)CCCC4)cc2)CC1 [Example 21, 1-{4-[4-(5,6,7,8-Tetrahydroquinolin-3-yl)-phenoxy]-piperidin-1-yl}-propan-1-one]
1 to 99	CCC(=O)N1CCC(Oc2ccc(-c3ccc4cccnc4c3F)cc2)CC1 [Example 22]
1 to 99	O=C(C1CC1)N1CCC(Oc2ccc(-c3ccc4cccnc4c3F)cc2)CC1 [Example 23, Cyclopropyl-{4-[4-(8-fluoroquinolin-7-yl)-phenoxy]-piperidin-1-yl}-methanone]
1 to 99	O=C(C1CCC1)N1CCC(Oc2ccc(-c3ccc4cccnc4c3F)cc2)CC1 [Example 24, Cyclobutyl-{4-[4-(8-fluoroquinolin-7-yl)-phenoxy]-piperidin-1-yl}-methanone]
1000 to 10000	CCC(=O)N1CCC(Oc2ccc(-c3ccc4ccc(C)nc4c3F)cc2)CC1 [Example 25, 1-{4-[4-(8-Fluoro-2-methylquinolin-7-yl)-phenoxy]-piperidin-1-yl}-propan-1-one]
1000 to 10000	Cc1ccc2ccc(-c3ccc(OC4CCN(C(=O)C5CC5)CC4)cc3)c(F)c2n1 [Example 26, Cyclopropyl-{4-[4-(8-fluoro-2-methylquinolin-7-yl)-phenoxy]-piperidin-1-yl}-methanone]
1000 to 10000	Cc1ccc2ccc(-c3ccc(OC4CCN(C(=O)C5CCC5)CC4)cc3)c(F)c2n1 [Example 27, Cyclobutyl-{4-[4-(8-fluoro-2-methylquinolin-7-yl)-phenoxy]-piperidin-1-yl}-methanone]
1 to 99	O=C([C@H]1CCCO1)N1CCC(Oc2ccc(-c3cnc4cccc(F)c4c3)cc2)CC1 [Example 28, {4-[4-(5-Fluoroquinolin-3-yl)-phenoxy]-piperidin-1-yl}-(R)-tetrahydrofuran-2-yl-methanone]
1 to 99	CCC(=O)N1CCC(Oc2ccc(-c3cnc4cccc(F)c4c3)cc2)CC1 [Example 29, 1-{4-[4-(5-Fluoroquinolin-3-yl)-phenoxy]-piperidin-1-yl}-propan-1-one]
1 to 99	O=C(C1CC1)N1CCC(Oc2ccc(-c3cnc4cccc(F)c4c3)cc2)CC1 [Example 30]
1 to 99	O=C(C1CCC1)N1CCC(Oc2ccc(-c3cnc4cccc(F)c4c3)cc2)CC1 [Example 31, Cyclobutyl-{4-[4-(5-fluoroquinolin-3-yl)-phenoxy]-piperidin-1-yl}-methanone]
100 to 999	CCC(=O)N1CCC(Oc2ccc(-c3cnc4[nH]ccc4c3)cc2)CC1 [Example 32, 1-{4-[4-(1H-Pyrrolo[2,3-b]pyridin-5-yl)-phenoxy]-piperidin-1-yl}-propan-1-one]
100 to 999	O=C(C1CC1)N1CCC(Oc2ccc(-c3cnc4[nH]ccc4c3)cc2)CC1 [Example 33, Cyclopropyl-{4-[4-(1H-pyrrolo[2,3-b]pyridin-5-yl)-phenoxy]-piperidin-1-yl}-methanone]
1 to 99	COc1ccc2cc(-c3ccc(OC4CCN(C(=O)C5CC5)CC4)cc3)cnc2c1 [Example 34, Cyclopropyl-{4-[4-(7-methoxyquinolin-3-yl)-phenoxy]-piperidin-1-yl}-methanone]
1 to 99	CCC(=O)N1CCC(Oc2ccc(-c3cnc4cc(OC)ccc4c3)cc2)CC1 [Example 35, 1-{4-[4-(7-Methoxyquinolin-3-yl)-phenoxy]-piperidin-1-yl}-propan-1-one]
1 to 99	CCC(=O)N1CCC(Oc2ccc(-c3ccc4cccnc4c3C)cc2)CC1 [Example 36]

IC50 [nM]	SMILES
1 to 99	Cc1c(-c2ccc(OC3CCN(C(=O)C4CC4)CC3)cc2)ccc2cccnc12 [Example 37, Cyclopropyl-{4-[4-(8-methylquinolin-7-yl)-phenoxy]-piperidin-1-yl}-methanone]
1 to 99	Cc1c(-c2ccc(OC3CCN(C(=O)C4CCC4)CC3)cc2)ccc2cccnc12 [Example 38]
100 to 999	O=C(C1CC1)N1CCC(Oc2ccc(-c3ccc4ccccc4n3)cc2)CC1 [Example 39, Cyclopropyl-[4-(4-quinolin-2-yl-phenoxy)-piperidin-1-yl]-methanone]
100 to 999	CCC(=O)N1CCC(Oc2ccc(-c3ccc4ccccc4n3)cc2)CC1 [Example 40, 1-[4-(4-Quinolin-2-yl-phenoxy)-piperidin-1-yl]-propan-1-one]
100 to 999	O=C(C1CCC1)N1CCC(Oc2ccc(-c3ccc4ccccc4n3)cc2)CC1 [Example 41, Cyclobutyl-[4-(4-quinolin-2-yl-phenoxy)-piperidin-1-yl]-methanone]
1 to 99	O=C([C@H]1CCCO1)N1CCC(Oc2ccc(-c3ccc4ccccc4n3)cc2)CC1 [Example 42, [4-(4-Quinolin-2-yl-phenoxy)-piperidin-1-yl]-(R)-tetrahydrofuran-2-yl-methanone]
1 to 99	CCC(=O)N1CCC(Oc2ccc(-c3cc4ccccc4cn3)cc2)CC1 [Example 43, 1-[4-(4-Isoquinolin-3-yl-phenoxy)-piperidin-1-yl]-propan-1-one]
1 to 99	O=C(C1CC1)N1CCC(Oc2ccc(-c3cc4ccccc4cn3)cc2)CC1 [Example 44, Cyclopropyl-[4-(4-isoquinolin-3-yl-phenoxy)-piperidin-1-yl]-methanone]
1 to 99	O=C(C1CCC1)N1CCC(Oc2ccc(-c3cc4ccccc4cn3)cc2)CC1 [Example 45, Cyclobutyl-[4-(4-isoquinolin-3-yl-phenoxy)-piperidin-1-yl]-methanone]
1 to 99	O=C([C@H]1CCCO1)N1CCC(Oc2ccc(-c3cc4ccccc4cn3)cc2)CC1 [Example 46, [4-(4-Isoquinolin-3-yl-phenoxy)-piperidin-1-yl]-(R)-tetrahydrofuran-2-yl-methanone]
1 to 99	CCC(=O)N1CCC(Oc2ccc(-c3cnc4ccccc4c3Cl)cc2)CC1 [Example 47, 1-{4-[4-(4-Chloroquinolin-3-yl)-phenoxy]-piperidin-1-yl}-propan-1-one]
1 to 99	O=C(C1CC1)N1CCC(Oc2ccc(-c3cnc4ccccc4c3Cl)cc2)CC1 [Example 48, {4-[4-(4-Chloroquinolin-3-yl)-phenoxy]-piperidin-1-yl}-cyclopropyl-methanone]
1 to 99	O=C(C1CCC1)N1CCC(Oc2ccc(-c3cnc4ccccc4c3Cl)cc2)CC1 [Example 49, {4-[4-(4-Chloroquinolin-3-yl)-phenoxy]-piperidin-1-yl}-cyclobutyl-methanone]
100 to 999	CCC(=O)N1CCC(Oc2ccc(-c3cnc4ccccc4c3OC)cc2)CC1 [Example 50, 1-{4-[4-(4-Methoxyquinolin-3-yl)-phenoxy]-piperidin-1-yl}-propan-1-one]
1000 to 10000	CCC(=O)N1CCC(Oc2ccc(-c3cnc4ccoc4c3)cc2)CC1 [Example 51, 1-[4-(4-Furo[3,2-b]pyridin-6-yl-phenoxy)-piperidin-1-yl]-propan-1-one]
1000 to 10000	O=C(C1CC1)N1CCC(Oc2ccc(-c3cnc4ccoc4c3)cc2)CC1 [Example 52, Cyclopropyl-[4-(4-furo[3,2-b]pyridin-6-yl-phenoxy)-piperidin-1-yl]-methanone]
1000 to 10000	CCC(=O)N1CCC(Oc2ccc(-c3cnc4ccc(OC)cc4c3)cc2)CC1 [Example 53, 1-{4-[4-(6-Methoxyquinolin-3-yl)-phenoxy]-piperidin-1-yl}-propan-1-one]
100 to 999	COc1ccc2ncc(-c3ccc(OC4CCN(C(=O)C5CC5)CC4)cc3)cc2c1 [Example 54, Cyclopropyl-{4-[4-(6-methoxyquinolin-3-yl)-phenoxy]-piperidin-1-yl}-methanone]
1000 to 10000	CCC(=O)N1CCC(Oc2ccc(-c3cnc4cc(OC)c(OC)cc4c3)cc2)CC1 [Example 55, 1-{4-[4-(6,7-Dimethoxyquinolin-3-yl)-phenoxy]-piperidin-1-yl}-propan-1-one]
